Broadly, the EC50 is the midpoint of the concentration-response curve.

From patent publication US12162861B2, “Dopamine D3 receptor selective antagonists/partial agonists; method of making; and use thereof” (THE UNITED STATES OF AMERICA, AS REPRESENTED BY THE …, priority 2016, dated 2024) come the findings set out here.

Series [1] concerns the target T1, human D2R (Homo sapiens, UniProt P14416).
T1 construct: expressed in transfected cells; host or cells: HEK293
The series is described as follows: Radioligand competition binding, [3H]N-methylspiperone, D2R. To be noted: Table 1A; HEK 293 cells transfected with hD2LR, [3H]N-methylspiperone; read-out: D2R K ± SEM. On the procedure:
Binding at dopamine D2-like receptors was determined using previously described methods. (Chen et al. “Tranylcypromine substituted cis-hydroxycyclobutylnaphthamides as potent and selective dopamine D(3) receptor antagonists.” J. Med. Chem. 2014, 57, 4962-4968) Membranes were prepared from HEK293 cells expressing human D2R, D3R or D4R, grown in a 50:50 mix of DMEM and Ham's F12 culture media, supplemented with 20 mM HEPES, 2 mM L-glutamine, 0.1 mM non-essential amino acids, 1× antibiotic/antimycotic, 10% heat-inactivated fetal bovine serum, and 200 μg/mL hygromycin (Life Technologies, Grand Island, NY) and kept in an incubator at 37° C. and 5% CO2. Upon reaching 80-90% confluence, cells were harvested using pre-mixed Earle's Balanced Salt Solution (EBSS) with 5 μM EDTA (Life Technologies) and centrifuged at 3000 rpm for 10 min at 21° C. The supernatant was removed and the pellet was resuspended in 10 mL hypotonic lysis buffer (5 mM MgCl2·6H2O, 5 mM Tris, pH 7.4 at 4° C.) and centrifuged at 20,000 rpm for 30 min at 4° C. The pellet was then resuspended in fresh EBSS buffer made from 8.7 g/L Earle's Balanced Salts without phenol red (US Biological, Salem, MA), 2.2 g/L sodium bicarbonate, pH to 7.4. A Bradford protein assay (Bio-Rad, Hercules, CA) was used to determine the protein concentration and membranes were diluted to 500 μg/mL and stored in a −80° C. freezer for later use.
Radioligand competition binding experiments were conducted using thawed membranes. Test compounds were freshly dissolved in 30% DMSO and 70% H2O to a stock concentration of 100 μM. To assist the solubilization of free-base compounds, 10 μl of glacial acetic acid was added along with the DMSO. Each test compound was then diluted into 13 half-log serial dilutions using 30% DMSO vehicle; final test concentrations ranged from 10 μM to 10 pM. Previously frozen membranes were diluted in fresh EBSS to a 100 μg/mL (for hD2R or hD3R) or 200 μg/mL (hD4R) stock for binding. Radioligand competition experiments were conducted in glass tubes containing 300 μl fresh EBSS buffer with 0.2 mM sodium metabisulfite, 50 μl of diluted test compound, 100 μl of membranes (10 μg total protein for hD2R or hD3R, 20 μg total protein for hD4R), and 50 μl of [^3H]N-methylspiperone (0.4 nM final concentration; Perkin Elmer). Nonspecific binding was determined using 10 μM butaclamol (Sigma-Aldrich, St. Louis, MO) and total binding was determined with 30% DMSO vehicle. All compound dilutions were tested in triplicate and the reaction incubated for one hour at room temperature. The reaction was terminated by filtration through Whatman GF/B filters, presoaked for one hour in 0.5% polyethylenimine, using a Brandel R48 filtering manifold (Brandel Instruments, Gaithersburg, MD). The filters were washed 3 times with 3 mL of ice cold EBSS buffer and transferred to scintillation vials. 3 mL CytoScint liquid scintillation cocktail (MP Biomedicals, Solon, OH) was added and vials were counted using a Perkin Elmer Tri-Carb 2910 TR liquid scintillation counter (Waltham, MA). IC50 values for each compound were determined from dose-response curves and Ki values were calculated using the Cheng-Prusoff equation; these analyses were performed using GraphPad Prism version 5.00 for Windows (GraphPad Software, San Diego, CA). Reported Ki values were determined from least three independent experiments.
For orientation: In a radioligand displacement assay an active substance lowers the binding of a labelled ligand.

The target of series [2] is T2, human dopamine D3R (Homo sapiens, UniProt P35462).
T2 construct: expressed in transfected cells; host or cells: CHO
The series is described as follows: D3R mitogenesis assay in CHO cells. The conditions noted are these: stimulation of mitogenesis, CHO cells with human D3R; read-out: Agonist EC50 ± SEM. Type of series: cell-based.

Series [3] deals with opiate mu receptor (Homo sapiens, UniProt P35372). The series can be described thus: Binding to opiate mu receptor.
Series [4] can be described thus: Sucrose self-administration. Type of series: in vivo. The conditions noted are these: pretreatment (±)-29 15 and 25 mg/kg, (±)-19 1 and 5 mg/kg.
Series [5] has as its target cannabinoid CB1 receptor (Homo sapiens, UniProt P21554). The series is described as follows: Binding to cannabinoid CB1 receptor.
The subject of series [6] is Long-Evans rats. The series can be described thus: Oxycodone-induced conditioned place preference (CPP) in rats. It counts as in vivo, rat. How it is done: CPP was tested in the place-conditioning apparatus (Med Associates, St Albans, VT) consisting of two side compartments (21×28 cm^2) and a central gray connecting area (21×12.5 cm^2); a sliding door separated each compartment from the connecting area. The two side compartments differed in wall color (black vs white), floor type (net vs grid), and illumination. Each rat was first exposed in the CPP apparatus for 15 minutes (preconditioning) and then followed by oxycodone CPP conditioning. […] Oxycodone CPP procedures consisted of 2 days of oxycodone (3 mg/kg, ip) conditioning in one compartment and 2 days of saline conditioning in another compartment, alternatively (e.g., oxycodone-saline-oxycodone-saline). The compartments paired with oxycodone or saline were counterbalanced. […] After oxycodone injection, animals were immediately confined in the assigned compartments for 40 minutes. To potentiate oxycodone CPP formation, animals received 4 days of oxycodone (3 mg/kg, ip, twice daily at 8:00 and 18:00) treatment at home cages. […] In the (Vehicle+vehicle) group, saline was paired with each compartment. Then 24 hours after the last saline or oxycodone conditioning injection, animals were placed in the same three-chamber CPP apparatus for 15 minutes and the time spent in each compartment was recorded. The CPP score was calculated by the time difference (seconds) that animal spent in drug-paired compartment versus saline-paired compartment.

opiate mu receptor, sequence (P35372 whole entry): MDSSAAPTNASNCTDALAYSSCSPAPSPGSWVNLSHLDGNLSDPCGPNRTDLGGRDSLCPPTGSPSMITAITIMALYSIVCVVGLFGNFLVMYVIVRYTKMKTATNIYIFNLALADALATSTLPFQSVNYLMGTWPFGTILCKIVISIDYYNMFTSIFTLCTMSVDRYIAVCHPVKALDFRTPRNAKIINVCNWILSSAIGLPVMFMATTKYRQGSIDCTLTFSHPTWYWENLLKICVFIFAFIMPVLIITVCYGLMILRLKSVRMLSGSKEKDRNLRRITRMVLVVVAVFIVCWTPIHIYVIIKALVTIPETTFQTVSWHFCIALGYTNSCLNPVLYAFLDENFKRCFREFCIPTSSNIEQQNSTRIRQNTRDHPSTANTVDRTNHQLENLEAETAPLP
cannabinoid CB1 receptor, sequence (P21554 whole entry): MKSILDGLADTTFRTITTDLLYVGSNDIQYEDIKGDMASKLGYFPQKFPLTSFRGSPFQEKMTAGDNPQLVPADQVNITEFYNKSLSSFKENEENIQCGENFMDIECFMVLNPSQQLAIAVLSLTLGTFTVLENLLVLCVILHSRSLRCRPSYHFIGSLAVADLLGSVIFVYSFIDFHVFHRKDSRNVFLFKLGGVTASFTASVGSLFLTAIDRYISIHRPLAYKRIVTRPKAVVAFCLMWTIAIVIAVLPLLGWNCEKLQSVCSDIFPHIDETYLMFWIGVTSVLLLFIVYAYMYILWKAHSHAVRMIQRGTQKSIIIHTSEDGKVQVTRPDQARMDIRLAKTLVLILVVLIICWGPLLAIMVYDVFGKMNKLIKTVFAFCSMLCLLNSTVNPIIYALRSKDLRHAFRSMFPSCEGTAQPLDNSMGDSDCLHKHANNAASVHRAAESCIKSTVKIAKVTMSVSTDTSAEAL
T2 sequence (P35462 whole entry): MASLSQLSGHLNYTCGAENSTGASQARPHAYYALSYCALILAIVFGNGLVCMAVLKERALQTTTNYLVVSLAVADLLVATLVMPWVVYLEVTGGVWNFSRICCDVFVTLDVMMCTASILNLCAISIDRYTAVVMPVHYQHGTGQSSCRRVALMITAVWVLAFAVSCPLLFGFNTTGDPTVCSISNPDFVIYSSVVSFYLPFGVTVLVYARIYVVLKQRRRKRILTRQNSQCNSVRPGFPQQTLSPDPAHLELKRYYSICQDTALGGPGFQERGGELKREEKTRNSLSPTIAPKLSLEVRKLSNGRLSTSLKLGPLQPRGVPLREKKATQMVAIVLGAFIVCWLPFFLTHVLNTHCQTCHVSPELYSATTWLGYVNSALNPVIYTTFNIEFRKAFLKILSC
T1 sequence (P14416 whole entry): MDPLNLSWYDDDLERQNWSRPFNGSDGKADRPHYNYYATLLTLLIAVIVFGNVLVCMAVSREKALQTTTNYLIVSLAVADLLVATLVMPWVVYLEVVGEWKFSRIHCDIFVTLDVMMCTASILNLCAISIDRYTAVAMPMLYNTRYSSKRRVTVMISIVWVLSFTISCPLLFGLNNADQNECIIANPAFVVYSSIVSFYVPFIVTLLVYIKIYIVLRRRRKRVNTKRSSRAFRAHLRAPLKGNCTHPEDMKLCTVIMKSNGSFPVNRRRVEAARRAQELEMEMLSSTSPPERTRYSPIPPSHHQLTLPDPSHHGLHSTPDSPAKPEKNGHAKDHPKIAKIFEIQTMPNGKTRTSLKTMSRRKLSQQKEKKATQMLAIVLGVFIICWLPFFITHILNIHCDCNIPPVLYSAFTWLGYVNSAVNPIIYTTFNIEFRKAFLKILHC

In the case of `CCc1cc(Cl)c(OC)c(N2CCN(CC(O)CCNC(=O)c3cc4ccccc4[nH]3)CC2)c1` (racemic) [Compound 29, N-(4-(4-(3-chloro-5-ethyl-2-methoxyphenyl)piperazin-1-yl)-3-hydroxybutyl)-1H-indole-2-carboxamide], the Ki in series [1] turned out to be 17.1 ± 5.09 µM. In series [2], the EC50 is over 8.3 µM. The “binding to opiate mu receptor” value in series [3] is given as “does not bind”. Also, in series [4], the sucrose self-administration result is on record as “no significant effects on sucrose self-administration”. The “binding to cannabinoid CB1 receptor” value in series [5] is “does not bind”. For the same compound, the “CPP produced by compound alone” value in series [6] (rats, 15 mg/kg alone) is reported as “did not produce CPP”. In addition, the “oxycodone induced CPP, posthoc comparison to (Vehicle+oxycodone) group” value in series [6] (rats, 15 mg/kg, p<0.05) is “significant reduction in oxycodone induced CPP”. In series [6] (rats, 5, 15 mg/kg ip, 15 min before each oxycodone injection (3 mg/kg ip), FIG. 10), the “oxycodone-induced CPP” value is “dose-dependently attenuated oxycodone-induced CPP”.
